Here are results for two molecules from patent publication US9955688B2, “Biocidal aldehyde composition” (priority 2015, dated 2018).

One data set deals with biofilm. The conditions noted are these: Flow Cytometry, MetaMorph image analysis; cited from earlier work. A general note: A flow cytometer gives signals particle by particle.
Data set [1] can be described thus: Pendant drop surface tension measurement (Tate's equation). Format: physicochemical. The conditions noted are these: pendant drop method, ten drops. From the text:
BAK's ability to repel biofilm formation as well as penetrate is based upon the physico/chemical and steric changes provoked by hydrophobic changes and electrostatic repulsion. This is due to the positively charged nitrogen that reacts with the acidic phospholipids in the cell membrane. This is the area of penetration bringing along the Glut (cidal component) increasing surface pressure which decreases the adhesive potential by affecting the osmoregularity of bacterial adhesins. […] The BAK molecules at the proper concentration are saturated or at the critical micelle concentration (CMC). When the BAK is above the CMC and the surface tension is constant the best wetting properties are achieved. The stated BAK concentration is important since low doses can actually stimulate metabolic reactions as well as cause resistance. Again the proper importance of “concentration ratios” develops the full synergistic effect. In an example the pendant drop method was used to determine surface tension activity of BAK. Ten drops were measured with a precision balance to calculate surface energy. Tate's equation was used for calculation. It was concluded that the surface tension was reduced by approximately 53%. This illustrates that the addition of the BAK to the formulation permits a better spreading of the solution.

In data set [2] the test system is biofilm communities of E. faecalis. As to the kind of experiment: Biofilm formation / LIVE/DEAD staining assay on E. faecalis biofilm communities. Format: cell-based. The conditions noted are these: components tested separately. The text has this: In experiments, biofilm communities of E. faecalis were created following the techniques of Bergenholtz and Chavez, J. Endo. Coating (2010), using the present formulation. […] This was confirmed by a staining LIVE/DEAD assay. […] Clearly, Glutaraldehyde alone is not as effective as BAK, nor vice versa. Together in “proper ratio” the formula is outstanding at reducing biofilm as well as killing the necessary bacteria. This synergy was confirmed by the fractional inhibitory concentration index (FICI). The FICI for a synergistic mixture, using checkerboard, gave the combination of Glut/BAK a 0.35 FICI which is inhibitory. [Greene et al., App Env Micro Vol 72: 5254-5259 (2006)]. Mixtures according to this test are synergistic when the lowest FICI is below 0.8 therefore giving credence to the present concept. Synergy of Glut/BAK is known but has not been fully tested since the tested material has been Glut/Quats (dual chains) and not BAK. […] The present determination of 4:1 (Glut:BAK), FICI independently determined, corrects this missing component to make an effective formulation. Strong synergy has been shown between Glut/BAK (FICI 0.35). The biofilm reduction/penetration ability of BAK combined with the broad spectrum biocidal activities of Glut enable and achieve, at lower concentrations, due to synergy, the destruction of the SRBs in oil/gas as well the pertinent bacteria in health care.
This was confirmed by the staining LIVE/DEAD assay. […] Glutaraldehyde alone is not as effective as BAK. Together in proper ratio the formula is outstanding at reducing biofilm as well as killing the necessary bacteria, and provides an excellent synergistic complimentary approach to eliminating the bacterial/biofilm problem.

The test system of data set [3] is E. Coli, P. aeruginosa, salmonella typhii, and kiebsiella. Briefly: MIC of disinfectants by agar dilution. Format: cell-based. As to conditions: individually determined. The protocol:
In addition to the foregoing, E. Coli, P. aeruginosa, salmonella typhii, and kiebsiella were tested using selective media and biochemical means. Disk diffusion methods were used testing disinfectant resistance by measuring zones of inhibition after eighteen hours of incubation. MICs of disinfectants were determined by agar dilution. […] The preferred determined exposure is actually 4× of Glut to BAK as determined by log reduction effectiveness. This was supported by running an MIC (inhibitory) versus a MBC (bactericidal) test. Using the McFarland standard on E. coli, with the combination Glut/BAK, the result was that the bactericidal amount was 2× the inhibitory amount in ppm. This was done via serial dilutions on media Nutrient Broth.

Data set [4] can be described thus: Check of Glutaraldehyde content when combined with BAK at the CMC. Format: physicochemical. The text has this: The multi-level mechanism of action is as follows. The Glutaraldehyde produces an inherent bacteriocidal effect. BAK lowers surface tension and thus aids in the spread of the Glut on the biofilm covered surface and serves as a binding agent between the Glut and the application surface. The BAK spreads the Glutaraldehyde on the cell surface and increases depth of penetration. Thus, the BAK and Glutaraldehyde are mutually synergistic in attacking and achieving the desired kill effect. Because BAK is a quaternary ammonium salt one would suppose that it would react adversely with the Glutaraldehyde and cause aldehyde consumption. For this reason it became mandatory to check the Glutaraldehyde content and determine if there was a decrease at the CMC. […] This is likely correct due to the small BAK concentration necessary to reach the CMC. […] As a matter of fact it acted synergistically to enhance cidal effects due to its surfactant action.

For the molecule benzalkonium chloride [BAK], the penetration of biofilm result in the data set with biofilm is given as “peripheral penetration followed by inward migration”. Also, the surface tension reduction result in data set [1] was “approximately 53%”. Also, in data set [2], the bio-volume reduction result is “over 70 fold” and the “kill (LIVE/DEAD staining)” value is “less so”. The MIC in data set [3] is 0.13%.

Consider `O=CCCCC=O` [Glutaraldehyde], for which the “reduction in Glutaraldehyde content when combined with BAK” value in data set [4] is given as “did not show any reduction”. In addition, the penetration of biofilm result in the data set on biofilm was “little or no penetration of biofilm”. The “kill (LIVE/DEAD staining)” value in data set [2] is given as 45%. In addition, the MIC in data set [3] is reported as 0.3%.
